This is an account of results in patent EP1676574A2, “Methods for promoting survival of transplanted tissues and cells” (Johnson & Johnson Vision Care, Inc., priority 2004, dated 2006).

Assay [1] concerns Human mesenchymal stem cells (MSC). The assay can be described thus: Plasma clotting assay with human mesenchymal stem cells. The settings on record: p38 inhibitor 10 µM pre-culture 10 days; anti-TF antibody 30 minutes pre-binding; untreated cells 1042.0. The class given is cell-based. The procedure: (§1) In the previous example, cells were stimulated overnight to produce TF by LPS induction. Inhibition of this process was achieved by addition of p38 inhibitor compound 1, evaluated by plasma clotting assay. In this example, two types of cells were pre-cultured with the p38 inhibitors compound 1 and compound 2 for 10 days to evaluate the effect of p38 MAPK inhibitors on coagulation. Cells were separately treated using a final concentration of 10 µM of each p38 inhibitor. Parallel treatments of DMSO vehicle were included as a control. Media, containing the above compounds were replenished during culture at intervals of every 2 days.
(§2) Human mesenchymal stem cells (MSC) were isolated from whole bone marrow purchased from Cambrex BioScience Walkersville, Inc. Cells were obtained from 10-ml aspirates taken from the iliac crest of normal human donors (age about 20 years). Mononuclear cells were isolated by gradient centrifugation. […]
(§3) The plasma clotting assay was performed as described in Example 1. Cells were lightly trypsinized from culture on the day of assay, washed, counted, and viability was determined before adjusting to 10^6 cells/ml in HBSS. […] Coagulation was monitored at room temperature in a kinetic plate reader using 15 second interval readings at 405 nm over 60 to 120 minutes. A final reading of T1/2 maximal clotting time was obtained for each sample condition. […]

Assay [2] relates to J82 cells. The assay can be described thus: Plasma clotting assay with J82 bladder carcinoma cells. The class given is cell-based, human. As to conditions: p38 inhibitor 10 µM pre-culture 10 days; anti-TF antibody 30 minutes pre-binding; untreated cells 155.01. How it is done:
as §1, §2, §3

Assay [3] concerns Peripheral blood mononuclear cells (PBMCs). The assay can be described thus: Plasma clotting assay with PBMCs. The class given is cell-based, human. As to conditions: p38 inhibitor 10 µM pre-incubated 18 to 24 hours, anti-TF antibody added 30 minutes prior to clotting, OD405. How it is done: Peripheral venous blood was obtained by consent from normal, healthy volunteers and mononuclear cells were isolated using Histopaque 1077 (Sigma) density gradient centrifugation. Following three washes with RPMI (Invitrogen) supplemented with 1% fetal calf serum (FCS), cells were counted and viability was assessed using a Guava PCA-96 instrument (Guava Technologies, Hayward, CA). Cells were resuspended to 1.67 x 10^6 cells/mL in RPMI media containing 10% FCS, and 4 mL/well were added to a 6-well dish (Corning-Costar). Lipopolysaccharide (LPS) was diluted into cell cultures to a final concentration of 10 ng/ml. p38 inhibitor compound 1 was added to cell cultures at a final concentration of 10 µM. An equivalent dilution of DMSO was added to untreated cultures. The following four assay conditions were: (+) LPS (+) p38 inhibitor, (+) LPS (-) p38 inhibitor, (-) LPS (+) p38 inhibitor, and (-) LPS (-) p38 inhibitor. […]
Plasma Clotting Assay. […] Clotting was monitored at 15 second intervals for 2 hours at room temperature using a Spectra MAX 190 (Molecular Devices, Sunnyvale, CA) at a wavelength of 405 nm. […]
PBMCs ([…] in 100 µl of HBSS) were pre-incubated with 25 µl of anti-TF antibody compound 3 (10 µg/ml) for 30 minutes at room temperature in the same 96-well plate as the untreated cells above. […] CaCl2 and pooled human plasma were added and the clotting reaction was monitored as described above.

Assay [4] deals with isolated mouse islets. The assay can be described thus: Plasma clotting assay with isolated mouse islets. The class given is cell-based, Balb/c mice. The settings on record: 10 µM p38 inhibitor, islets cultured 72 hours; 50 islets/well; vehicle control 388.6 (compound 2 experiment), 488.9 (second experiment). The procedure:
Pancreata were harvested from Balb/c mice via cannulation of the common bile duct and perfusion with a liberase solution (Roche). Pancreata were digested at 37°C for 15 minutes followed by discontinuous ficoll gradient centrifugation to remove acinar and ductal tissue.
Islets of similar size were collected and plated in 3 ml of islet growth medium in a 6-well culture dish (300 islets per well) with or without p38 MAPK inhibitors (10 µM compound 1 or compound 2). Vehicle control was an equivalent dilution of DMSO. Islets were cultured at 37°C in 5% CO2 for 72 hours. The three treatment conditions were: vehicle control, (+) p38 inhibitor compound 1, and (+)p38 inhibitor compound 2.
Plasma Clotting Assay. […] Clotting was monitored at 15 second intervals for 2 hours at room temperature in a Spectra MAX 190 (Molecular Devices, Sunnyvale, CA) at 405nm. Times to half maximum OD were calculated as 388.6 seconds for the vehicle control and 596.9 seconds for cells treated with p38 inhibitor compound 2. […] In a second experiment, the time to half maximum was calculated as 488.9 seconds for the vehicle control and 974.7 seconds for treated islets. […]

For the molecule `OCCC#Cc1nc(-c2ccc(F)cc2)c(-c2ccncc2)n1CCCc1ccccc1` [compound 1, 4-[4-(4-fluorophenyl)-1-(3-phenylpropyl)-5-(4-pyridinyl)-1H-imidazol-2-yl]-3-butyn-1-ol], the “time to half the maximum OD” value in assay [1] was 1882.2 s; in assay [3] ((+) LPS 10 ng/ml, (+) LPS cells without inhibitor 928.6), 1837.3 s; in assay [3] ((-) LPS, untreated cells 2946.4), 3289.0 s. For the same molecule, in assay [2], the “times to reach ½ maximal OD” value is given as 160.9 s. For the same molecule, the “Times to half maximum OD” value in assay [4] was 974.7 s.
